Where “and” joins values, the source holds several entries; their conditions need not be identical. Equal entries are not always repeated. Each block holds one molecule with its values, some of them ahead of it.
Molecular target: T1, THIK-1 Y273A (Homo sapiens, UniProt Q9HB14, Y273A)
T1 construct: expressed in transfected cells; host or cells: Xenopus oocytes (mRNA injection)
T1 sequence (Q9HB14 1-408 Y273A): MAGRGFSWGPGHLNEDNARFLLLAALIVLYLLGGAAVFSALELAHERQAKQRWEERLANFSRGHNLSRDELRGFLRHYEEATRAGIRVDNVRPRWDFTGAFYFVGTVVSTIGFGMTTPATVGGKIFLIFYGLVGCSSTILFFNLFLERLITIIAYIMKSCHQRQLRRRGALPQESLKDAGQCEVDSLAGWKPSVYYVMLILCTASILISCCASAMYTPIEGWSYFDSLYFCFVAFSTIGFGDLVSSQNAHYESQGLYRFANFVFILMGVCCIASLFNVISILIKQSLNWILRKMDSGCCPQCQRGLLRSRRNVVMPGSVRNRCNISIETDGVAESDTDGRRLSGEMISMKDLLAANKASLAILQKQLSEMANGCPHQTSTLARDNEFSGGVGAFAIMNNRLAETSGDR
Test: Inside-out excised patch recordings, oocytes, THIK-1 Y273A mutant
Type: cell-based
Parameters: Halothane inhibition: concentration or dose not given beside the values
From the text: Human K2P13.1 THIK-1 (GenBank accession number: NM_022054) and human K2P12.1 THIK-2 (NM_022055.1) were used in this study. For functional expression studies, the respective K^+ channel subtype coding sequences were subcloned into the oocyte expression vector pSGEM or the dual-purpose expression vector pFAW[41] and verified by sequencing. All mutant channels were obtained by site-directed mutagenesis and verified by sequencing. To increase surface expression and macroscopic currents, measurements of THIK-2 channels used a mutated ER retention motif, (R11A R12A R14A R15A R16A; THIK-2*)[20]. Vector DNA was linearized with NheI or MluI, and mRNA was synthesized in vitro using the SP6 or T7 AmpliCap Max High Yield Message Maker Kit (Cellscript, USA) or HiScribe T7 ARCA mRNA Kit (New England Biolabs).
Two-electrode voltage–clamp (TEVC) studies were performed in Xenopus oocytes. All animal use conformed to the Guide for the Care and Use of Laboratory Animals (NIH Publication 85–23), and all experiments using Xenopus toads were approved by the local ethics panels. Oocytes were stored at 17 °C in ND96 recording solution composed of (in mM): 96 NaCl, 2 KCl, 1.8 CaCl2, 1 MgCl2, 5 HEPES (pH 7.5 adjusted with NaOH and HCl), supplemented with Na-pyruvate (275 mg L^–1), theophylline (90 mg L^–1) and gentamicin (50 mg L^–1). Oocytes were injected with 1 ng mRNA for WT or mutant channels, and were incubated for 24–48 h at 17 °C. Two-electrode voltage clamp recordings were then performed as previously described[42],[43]. For macroscopic patch–clamp measurements, oocytes were obtained as described above incubated at 17 °C in a solution containing (mM): 54 NaCl, 30 KCl, 2.4 NaHCO3, 0.82 MgSO4 ×7 H2O, 0.41 CaCl2, 0.33 Ca(NO3)2 ×4 H2O and 7.5 TRIS (pH 7.4 adjusted with NaOH and HCl) for 1–4 days before use. Excised patch recordings in inside-out configuration conditions were performed at room temperature. […] Intracellular bath solutions and compounds were applied to the cytoplasmic side of excised patches for the various K^+ channels through a gravity flow multi-barrel pipette system. The intracellular solution had the following composition (in mM): 120 KCl, 10 HEPES, 2 EGTA and 1 pyrophosphate (pH adjusted with KOH and HCl). Currents were recorded with an EPC10 amplifier (HEKA Electronics) and sampled at 10 kHz or higher, with filtering set to 3 kHz (–3 dB) or higher, as appropriate for sampling rate. For measurements of GPCR activation, whole-cell currents were recorded for THIK-1 in transiently transfected HEK-293 cells. Cells were stimulated by a ramp protocol between −100 and +60 mV (holding potential, −80 mV). The pipette solution was composed of (in mM): 140 KCl, 2 MgCl2, 1 CaCl2, 2.5 EGTA and 10 HEPES (pH 7.3 adjusted with KOH and HCl). The extracellular bath solution had the following composition (in mM): 135 NaCl, 5 KCl, 2 MgCl2, 2 CaCl2, 10 glucose and 10 HEPES pH (pH 7.3 adjusted with NaOH and HCl). Oxotremorine M (Oxo-M) was added to extracellular bath solution to obtain the final concentration. Single-channel currents were recorded with an Axopatch 200B amplifier through a Digidata 1440A digitizer (Molecular Devices). Data were filtered at 2 kHz and recorded at a 200-kHz sampling rate with the program Clampex (Molecular Devices). Pipette solution and bath solution for cell-attached recordings contained (in mM): 140 KCl, 2 MgCl2, 1 CaCl2 and 10 HEPES (pH 7.4 adjusted with KOH and HCl). For inside-out recordings, the bath solution contained (in mM): 140 KCl, 2 MgCl2, 1 CaCl2 and 10 HEPES (pH 7.2 adjusted with KOH and HCl). All experiments were conducted at room temperature.
TPenA, linoleic acid, L-α-phosphatidylinositol 4,5-bisphosphate (brain PI(4,5)P2, PIP2) (Sigma-Aldrich and Merck) and oleoyl-CoA (LC-CoA 18:1) (Avanti Polar Lipids) were prepared as stocks (1–100 mM) in DMSO, stored at −80 °C and diluted to the final concentration in the intracellular recording solution. Oxo-M (Tocris Bioscience,) was prepared as 50 mM stock in H2O. […]

inhibition at 242 µM (isoflurane 0.242 mM, THIK-1 Y273A): 9.07%
inhibition at 485 µM (isoflurane 0.485 mM, THIK-1 Y273A): 17.7%
inhibition at 2420 µM (isoflurane 2.42 mM, THIK-1 Y273A): 30.9%
inhibition at 4850 µM (isoflurane 4.85 mM, THIK-1 Y273A): 50.8%
inhibition at 24200 µM (isoflurane 24.2 mM, THIK-1 Y273A): 75%
Compound: FC(F)OC(Cl)C(F)(F)F (stereo not drawn) [Isoflurane, isoflurane]
Inhibition (%) (4.9 mM Isoflurane, Y273A, individual recordings): 36.141% and 64.534% and 64.029% and 67.231% and 69.534% and 60.746% and 65.223% and 43.937% and 15.847% and 38.113% and 40.962% and 42.936%

inhibition at 240 µM (0.24 mM Sevoflurane, Y273A, mean): 26.2%
inhibition at 23 µM (THIK-1 Y273A, 0.023 mM sevoflurane): 6.96%
inhibition at 47 µM (THIK-1 Y273A, 0.047 mM sevoflurane): 10.4%
inhibition at 468 µM (THIK-1 Y273A, 0.468 mM sevoflurane): 38.6%
inhibition at 2340 µM (THIK-1 Y273A, 2.34 mM sevoflurane): 62.5%
Compound: FCOC(C(F)(F)F)C(F)(F)F [Sevoflurane, sevoflurane]
Inhibition (%) (0.24 mM Sevoflurane, Y273A, individual recordings): 39.37% and 26.75% and 26.20% and 15.99% and 28.93% and 17.93% and 28.11%

Compound: CCCCC[N+](CCCCC)(CCCCC)CCCCC [TPenA, tetrapentylammonium]
Normalized currents (TPenA 0.1 µM, THIK-1 Y273A): 1.00
Normalized currents (TPenA 1 µM, THIK-1 Y273A): 0.96
Normalized currents (TPenA 4 µM, THIK-1 Y273A): 0.84
Normalized currents (TPenA 15.6 µM, THIK-1 Y273A): 0.65
Normalized currents (TPenA 62.5 µM, THIK-1 Y273A): 0.41
Normalized currents (TPenA 250 µM, THIK-1 Y273A): 0.19
Normalized currents (TPenA 1000 µM, THIK-1 Y273A): 0.07
Normalized currents (TPenA 4000 µM, THIK-1 Y273A): 0.03
τ of 1 mM TPenA block (Y273A, individual recordings): 0.054 s and 0.134 s and 0.071 s and 0.075 s and 0.076 s and 0.081 s and 0.059 s and 0.121 s and 0.057 s and 0.060 s
τ of 1 mM TPenA release (Y273A, individual recordings): 0.946 s and 0.858 s and 0.474 s and 1.777 s and 0.915 s and 1.232 s and 0.747 s and 0.935 s and 0.998 s and 1.301 s
τ of 1 mM TPenA block (Y273A, mean): 0.08 s
τ of 1 mM TPenA release (Y273A, mean): 1.02 s

inhibition at 3000 µM (3.0 mM halothane, Y273A, mean): 27.2%
Halothane inhibition (THIK-1 Y273A, 4 K+ ex., mean): 47.43%
Halothane inhibition (THIK-1 Y273A, 120 K+ ex., mean): 50.83%
Compound: FC(F)(F)C(Cl)Br (stereo not drawn) [halothane]
Inhibition (%) (3.0 mM halothane, Y273A, individual recordings): 24.640% and 18.199% and 20.441% and 32.359% and 23.062% and 35.325% and 35.762% and 32.640% and 40.661% and 24.150% and 21.311% and 24.444% and 21.407% and 27.084%
Halothane inhibition (THIK-1 Y273A, 4 K+ ex., individual recordings): 48.800% and 50.390% and 50.850% and 54.290% and 50.150% and 44.140% and 43.970% and 46.310% and 43.270% and 42.110%
Halothane inhibition (THIK-1 Y273A, 120 K+ ex., individual recordings): 50.140% and 54.850% and 53.810% and 41.990% and 54.110% and 49.130% and 50.870% and 49.910% and 52.660%
